Results on 87 molecules are retold here after a melting point compilation (Tetko et al.; mined from patent text by program, amines drawn as free bases though some values may be those of a salt).

One may read the melting point as the temperature of the solid-liquid transition.

Molecule `N#Cc1c(N2CCCCC2)cc(-c2ccc(F)cc2)c2c1-c1ccccc1C2=O` came in with a melting point of 180 to 182 °C.

Turning to `Cc1noc(-c2ccc(Br)c(C)c2)n1`, the melting point lay within 75 to 77 °C.

The molecule `O=C(O)c1c(O)ccc2ccccc12` came in with a melting point of 218 °C.

The molecule `Cc1cnc2[nH]cc(/C=C3\N=C(NCC4CC4)NC3=O)c2c1` gave a melting point of 319 to 320 °C.

For `O=C(NS(=O)(=O)c1cc(C(F)(F)F)ccc1Cl)c1cn2cc(C(F)(F)F)cnc2n1`, the melting point was 211 to 212 °C.

For `CNc1ccccc1CS(=O)c1nc2ncccc2[nH]1` (configuration not stated), the melting point was found to be 120 °C.

In turn, `CC(=O)Nc1nc(Cl)c2ncn(COC(COC(C)C)COC(C)C)c2n1` had a melting point of 106 °C.

`CCc1ncc2n1N=C(c1ccc([N+](=O)[O-])cc1)c1cc3c(cc1C2)OCO3` gave a melting point of 243 to 245 °C.

`Cc1cc(-c2nc3cccnn3c2-c2ccnc(NC(=O)c3ccc4ncccc4c3)c2)ccc1F` had a melting point of 210 to 211 °C.

`CCC(=O)Nc1cc(C(C)(C)C)[nH]n1` had a melting point of 228 to 229 °C.

As to `Oc1cccc(NCCc2ccccn2)c1`, the melting point was in the range of 118 to 120 °C.

In turn, `OC1c2cc(OCc3ccc4ccccc4n3)ccc2OCCC1Oc1ccccc1` (configuration not stated) had a melting point of 128 to 129 °C.

For the molecule `COc1ccccc1-c1ccc(C[C@@H](NC(=O)c2c(Cl)cccc2Cl)C(=O)O)cc1`, the melting point was found to be 195 °C.

On to `Cn1nc(-c2ccc([N+](=O)[O-])o2)c2c(NO)ncnc21`, for which the melting point is 294 °C.

Consider `CCC(C)N(C)C(=O)c1nc(-c2ccccc2)c2ccccc2n1` (configuration not stated), for which the melting point was 128 °C.

The molecule `CN(C(=O)c1ccc2nsnc2c1)C1CCOCC1` returned a melting point of 106 to 108 °C.

Take `Cc1c(S(C)=O)c(C#N)nn1-c1c(Cl)cc(C(F)(F)F)cc1Cl` (configuration not stated): the melting point fell in the range of 109 to 115 °C.

The molecule `CC(C)(C=O)C(=O)Nc1ccc(Cl)cc1` came in with a melting point of 99 to 100 °C.

The molecule `O=C1Nc2cccnc2Nc2ncccc21` showed a melting point above 340 °C.

In turn, `CCN(CCOC)C(=O)c1cc(-c2ccccc2)c(=O)[nH]c1-c1c(Cl)cccc1C#N` showed a melting point of 184 to 186 °C.

With `CCCCOC(=O)CN(Cc1ccccc1OC)S(=O)(=O)c1ccc2c(Cl)cnc(Cl)c2c1`, the melting point lay within 106 to 108 °C.

`Cc1cc(-c2cc(C(F)F)n3ncc(-c4nc(-c5ccc(N)nc5)no4)c3n2)ccc1Cl` yielded a melting point of 243 °C.

`O=C1[C@@H]2CSC(c3ccccc3)N2C(=O)N1Cc1ccccc1` (some centres not stated) displayed a melting point of 79 °C.

As to `CN1CCC(=C2c3ccccc3OCc3cc(Br)sc32)CC1`, the melting point was 101 to 103 °C.

As for `CCC(C(=O)c1ccc(Cl)cc1)n1ncn(-c2ccc(N3CCN(c4cnccn4)CC3)nc2)c1=O` (single isomer, unassigned; (+)), the melting point turned out to be 190 °C.

In turn, `CN(C)c1ccc2nc(-c3csc4ccccc34)[nH]c(=O)c2c1` yielded a melting point above 300 °C.

In the case of `COc1cc2c(cc1OC)CC(=O)N(CC1CCCNC1)CC2` (configuration not stated), the melting point lay within 152 to 156 °C.

`CN(C)C(=O)CCc1ccc(NC(=O)Nc2ccc(Cl)c(C(F)(F)F)c2)c(-c2nnn[nH]2)c1` showed a melting point of 184 to 189 °C.

`CC(C)N1Cc2ccccc2N(CCN2CCC(c3c[nH]c4cc(F)ccc34)C2)S1(=O)=O` (configuration not stated) registered a melting point of 50.8 to 54.4 °C.

On to `C=CCOc1ccccc1S(=O)(=O)NC(=O)Nc1nc(C)nc(OC)n1`, for which the melting point lay within 146 to 147 °C.

`COC(=O)c1ccc(I)cc1S(N)(=O)=O` returned a melting point of 176 to 177 °C.

In the case of `Cc1cccc(NC(=O)NCC(=O)N(c2ccccc2)C(C(=O)OC(C)(C)C)C(=O)OC(C)(C)C)c1`, the melting point turned out to be 175 °C.

The molecule `CCOC(=O)NNc1ccc(-c2ccc(C#N)cc2)nn1` registered a melting point of 235 °C.

For `Cn1cc(C(=O)NC(=O)N2CC2C#N)c([N+](=O)[O-])n1` (configuration not stated), the melting point lay in the range of 58 to 64 °C.

Molecule `O=C1c2ccccc2C(=O)N1CCN1CCC(=C2c3ccccc3C=Cc3ccccc32)CC1` displayed a melting point of 190 °C.

Molecule `CC(C)(C)CC(=O)Oc1ccc(-c2nn(C3CCCC3)c3c(F)cccc23)cc1` yielded a melting point of 74 to 75 °C.

`CC(C)c1nc(COC(=O)N[C@@H](C)C(=O)N[C@@H](Cc2ccccc2)C[C@H](O)[C@H](Cc2ccccc2)NC(=O)OCc2cncs2)cs1` yielded a melting point of 59 to 61 °C.

Regarding `NS(=O)(=O)c1cc2c(s1)CCC(=O)C2`, the melting point is 148 to 150 °C.

In turn, `CN(C)NC(=O)N(C)C1c2ccccc2Oc2ccccc21` gave a melting point of 120 to 123 °C.

As to `O=C(O)[C@@H]1CCCN1C(=O)c1cc2cc3c(cc2c2cc(OCc4ccccc4)ccc12)OCO3`, the melting point was in the range of 221 to 223 °C.

As to `COC(=O)Nc1cc(O)c(Cl)cc1F`, the melting point is 140 to 141 °C.

`COc1ncc(C=C2SC(=S)N(CC(=O)O)C2=O)cc1-c1cc2c(cc1C)C(C)(C)CCC2(C)C` gave a melting point of 253 to 255 °C.

Consider `Cc1cc(C)nc(N(N=O)c2ccccc2)n1`, for which the melting point lay in the range of 117 to 121 °C.

`C=CCONC(=O)c1nc(-c2ccc(Cl)c(OC)c2F)c(F)c(N)c1Cl` returned a melting point of 184 to 186 °C.

The molecule `Cc1cccc2c(-c3ccc(Cl)cc3)noc12` came in with a melting point of 88 to 90 °C.

On to `CC(C)(C)n1nnc(Cc2ccc(CBr)cc2)n1`, for which the melting point is 73 to 74 °C.

`O=C1Cc2ccccc2N1CC(F)(F)F` returned a melting point of 155 to 162 °C.

Molecule `NC(=O)OCCn1cc(C(N)=O)c([N+](=O)[O-])n1` showed a melting point of 191 to 194 °C.

Take `Fc1cccc2c(OCCc3ccc(Cl)cc3)ccnc12`: the melting point is 139 to 140 °C.

As to `CCOc1cc(CO)cc(OCc2nc(-c3ccccc3)oc2C)c1`, the melting point was 103 to 104 °C.

In turn, `C=C[C@H](O)[C@@H](N)CC1CCCCC1` showed a melting point of 59 to 61 °C.

As for `COC(=O)CCC(C)C1CCC2C3C(O)CC4CC(NC(=O)CNC(=O)OC(C)(C)C)CCC4(C)C3CC(O)C12C` (configuration not stated), the melting point was 110 to 114 °C.

Molecule `COc1cc(-c2cc(C(F)(F)F)nn2-c2ccc(S(C)(=O)=O)c(F)c2)ccc1-c1cocn1` returned a melting point of 148 to 150 °C.

Take `CC(CCCC(=O)O)(c1ccc(OCc2ccc3ccccc3n2)cc1)c1ccc(OCc2ccc3ccccc3n2)cc1`: the melting point fell in the range of 87 to 89 °C.

Consider `CCn1c(=O)c2c(nc(/C=C/c3cc(O)c4c(c3)OCO4)n2C)n(CC)c1=O`, for which the melting point lay within 265 to 268 °C.

With `Oc1ccc2c(-c3ccc4c(O)cccc4c3)noc2c1`, the melting point was in the range of 275 to 277 °C.

Molecule `OC(C(c1cccc(Cl)c1)n1ccnc1)C12CC3CC(CC(C3)C1)C2` (configuration not stated) returned a melting point of 115 °C.

`O=C(CO)c1ccccc1F` came in with a melting point of 51 to 54 °C.

Turning to `CCN(C(=O)C#Cc1ccccc1)c1ccccc1C1CCCCN1C` (configuration not stated), the melting point is 104 to 106 °C.

`CCOCc1nc2c(N)nc3cc(OCCNC(=O)OC(C)(C)C)ccc3c2n1CC1COC(C)(C)O1` (configuration not stated) came in with a melting point of 82 to 84 °C.

`O=C(Oc1cc(F)ccc1Br)c1cc2ccccc2oc1=O` came in with a melting point of 173 to 175 °C.

As to `COCCNC(=O)c1cc(F)cc(-c2cccc3cc(Cc4cc(F)cc(Cl)c4)sc23)c1`, the melting point was 72 to 73 °C.

In the case of `O=C1N(Cc2cccc(O)c2)c2ccccc2C12COc1cc3c(cc12)CCO3` (configuration not stated), the melting point fell in the range of 225 to 227 °C.

For `CCOC(=O)CNC(=O)c1cc2c(s1)-n1c(C)nnc1CN=C2c1ccccc1Cl`, the melting point lay in the range of 251 to 252 °C.

For `COc1ccc(Cc2c(C)c3c(N)nc(N)nc3[nH]c2=O)cc1OC`, the melting point fell in the range of 346 to 348 °C.

`O=[N+]([O-])c1ccc(F)c(Br)c1` came in with a melting point of 59 °C.

In the case of `COCOC1CCC2(C)C(=CCC3C4CCC(=O)C4(C)CCC32)C1` (configuration not stated), the melting point lay within 130 to 132 °C.

Consider `NOCc1ccc2c(c1)-c1n[nH]c(=O)c3cccc(c13)O2`, for which the melting point lay within 294 to 296 °C.

For the molecule `CNC(=O)c1cccc(NC(=O)Cc2csc3ccccc23)c1`, the melting point was determined as 194 °C.

`O=C(Nc1ccc2cc(CN3CCCC3)cnc2c1)N1CCC(c2ccc(F)cc2)CC1` came in with a melting point of 239 to 241 °C.

Consider `Cc1nc(C)c(-c2[nH]nc3c2C(=O)c2c(NC(=O)NN4CCOCC4)cccc2-3)s1`, for which the melting point was above 300 °C.

For the molecule `O=C1Nc2ccc(Cl)cc2C1(Cl)c1ccccc1OC(F)(F)F` (configuration not stated), the melting point worked out at 185 °C.

On to `Cc1cccc(-c2n[nH]cc2-c2ccc(F)c(-c3cnn(CCN4CCOCC4)c3)c2)n1`, for which the melting point stood at 124 °C.

The molecule `O=C(c1ccc(Cl)cc1)c1ccc([N+](=O)[O-])cc1Cl` showed a melting point of 117 to 118 °C.

For the molecule `CCCCOC(=Cn1ccnc1)c1ccc(Cl)cc1Cl`, the melting point fell in the range of 205 to 207 °C.

In turn, `N#Cc1cc(F)c(N2C(=O)C3CCCCN3C2=O)nc1Cl` (configuration not stated) came in with a melting point of 192 to 193 °C.

`Cc1cc(C)n(-c2ncc(Cl)c(NC3CCCCC3)n2)n1` showed a melting point of 90 to 99 °C.

`O=C(NNc1ccccc1)c1ccccc1O`: the melting point stood at 259 °C.

As to `CC(=O)OC1CSC(Oc2cncc(-c3ccc(F)c(C)c3)c2)C(OC(C)=O)C1OC(C)=O` (configuration not stated), the melting point turned out to be 161 °C.

Molecule `O=C(NC(C(=O)O)c1ccsc1)OCc1ccccc1` (configuration not stated) yielded a melting point of 115 to 117 °C.

Turning to `CC(=O)Nc1nc(C(N)=O)cs1`, the melting point was above 250 °C.

Consider `COc1ccc(NC(=O)c2ccccc2C(c2ccc(O)cc2)c2ccc(O)cc2)c(OC)c1`, for which the melting point lay in the range of 122 to 124 °C.

The molecule `Cc1nc2cc(C(=O)NC3CC3)c(NC(=O)c3cc(C(F)(F)F)nn3-c3ncccc3Cl)c(Cl)c2nc1C` displayed a melting point of 255 to 258 °C.

With `CC(C)(C)c1ccc(C2OCC(CO)(NC(=O)c3c(Cl)cccc3Cl)CO2)cc1` (configuration not stated), the melting point lay in the range of 178 to 180 °C.

For the molecule `C[C@H](c1ccccc1)N1C(=O)N(C(=O)OC(C)(C)C)[C@@H]2C(=O)OC[C@@H]21`, the melting point is 177 to 178 °C.

Take `CCCCCC(CC(=O)Nc1cc(CO)ccc1C(C)(C)C)c1ccc(OC)cc1OC` (configuration not stated): the melting point lay in the range of 125 to 126 °C.

In turn, `Cc1cccc(C)c1NC(=O)CN1C(=O)C2(COc3cc4c(cc32)CCO4)c2ccccc21` (configuration not stated) showed a melting point of 261 to 262 °C.
